Assay results from patent US20170304386A1, “METHOD FOR INHIBITING SURVIVAL, TUMORIGENESIS AND METASTASIS OF CANCER CELLS AND/OR CANCER STEM CELLS” (priority 2014, published 2017).
“Also recorded” adds a separate entry of the source. Residues, ends and D or L forms follow the SMILES beside them. *: point of attachment. Cbz = O=C(OCc1ccccc1)*

Assays:
Assay type in all cases: cell-based, human
EMT markers = assay: Western blot of Snail and EMT markers in A549 spheroid culture; conditions: PMA 100 nM, 1,10-phenanthroline 20 μM
Description: (§1) Knockdown of ADAMS or ADAM10 inhibited shedding of Collagen XVII and reduced laminin-5 expression in A549 cells cultured in spheroid culture.
(§2) The lung cancer cell lines A549 and CL1-1 were obtained from the American Type Culture Collection. Cells were grown in Dulbecco's Modified Eagle Medium (DMEM) (Gibco, Grand Island, N.Y.) containing 10 units/ml penicillin, 10 μg/ml streptomycin, 2 mM glutamine, and 10% fetal bovine serum (FBS; Gibco), in a 37° C. humidified atmosphere with 5% CO2. For enrichment of cancer stem-like cells (CSCs) in spheroid culture, lung cancer cells were suspended in tumor sphere medium consisting of serum-free DMEM/F12 (Gibco), N2 supplement (Gibco), human recombinant epidermal growth factor (EGF) (20 ng/ml, PeproTech, Rocky Hill, N.J.), and basic fibroblastic growth factor (bFGF) (10 ng/ml, PeproTech). Cell colonies >100 μm in diameter and >50% in area showing 3-dimensional structure and blurred cell margins were defined as spheres. Sphere numbers were counted at day 12 of culture. Cells were harvested and protein lysates were collected for further experiments. Treatment reagents included FAK inhibitor (20 μM) (Calbiochem, San Diego, Calif.; Merk, Schwalbach, Germany), LY294002 (10 μM) (Calbiochem), 1,10-phenanthroline (20 μM) (Sigma-Aldrich; St. Louis, Mo.), PMA (100 nM) (Sigma-Aldrich) and Cyclohexamide (50 μg/ml) (Calbiochem).
(§3) Cell extracts were prepared with M-PER (Pierce, Rockford, Ill.) plus protease inhibitor cocktail (Halt™; Pierce) and protein concentrations were determined using the bicinchoninic acid (BCA) assay (Pierce). Aliquots of protein lysates were separated on SDS-10% polyacrylamide gels and transferred to PVDF membrane filters, followed by blocking with 5% blotting grade milk (Bio-Rad, Hercules, Calif.) in TBST (20 mM Tris-HCl [pH 7.6], 137 mM NaCl, 1% Tween 20). Membranes were then probed with the indicated primary antibodies, reacted with the corresponding secondary antibodies, and results detected using a chemiluminescence assay (Millipore, Billerica, Mass.). Membranes were exposed to X-ray film to visualize the bands (Amersham Pharmacia Biotech, Piscataway, N.J.).

Col XVII = assay: Immunoblot of Col XVII shedding in A549 spheroid culture; conditions: A549 spheroid culture 12 days; PMA 100 nM, 1,10-phenanthroline 20 μM
Description: as §1
The lung cancer cell lines A549 and CL1-1 were obtained from the American Type Culture Collection. Cells were grown in Dulbecco's Modified Eagle Medium (DMEM) (Gibco, Grand Island, N.Y.) containing 10 units/ml penicillin, 10 μg/ml streptomycin, 2 mM glutamine, and 10% fetal bovine serum (FBS; Gibco), in a 37° C. humidified atmosphere with 5% CO2. For enrichment of cancer stem-like cells (CSCs) in spheroid culture, lung cancer cells were suspended in tumor sphere medium consisting of serum-free DMEM/F12 (Gibco), N2 supplement (Gibco), human recombinant epidermal growth factor (EGF) (20 ng/ml, PeproTech, Rocky Hill, N.J.), and basic fibroblastic growth factor (bFGF) (10 ng/ml, PeproTech). […] Sphere numbers were counted at day 12 of culture. […]
Cell extracts were prepared with M-PER (Pierce, Rockford, Ill.) plus protease inhibitor cocktail (Halt™; Pierce) and protein concentrations were determined using the bicinchoninic acid (BCA) assay (Pierce). […] Membranes were then probed with the indicated primary antibodies, reacted with the corresponding secondary antibodies, and results detected using a chemiluminescence assay (Millipore, Billerica, Mass.). […]

A549 cells [1] = assay: Migration assay (Boyden chambers); conditions: PMA 100 nM, 1,10-phenanthroline 20 μM
Description: as §1
Cell migration assay was performed using Boyden chambers. At the end of the assay, cells in the upper chamber and on the upper filter surface were removed, whereas cells on the lower filter surface were fixed with ethanol and stained with Giemsa (Sigma-Aldrich). The number of migrating cells was determined by counting cells in 10 random fields/filter at 200× magnification. Data were calculated as a percentage of migrated cells in the absence of chemoattractant or adherent culture, which was considered as 100%. All experiments were performed in triplicate.

A549 cells [2] = assay: Invasion assay (Matrigel Invasion Chambers); conditions: PMA 100 nM, 1,10-phenanthroline 20 μM
Description: as §1
Cell invasion assays were performed using 24-well BD Biocoat Matrigel Invasion Chambers (Becton, Dickinson and Company, San Jose, Calif.) according to the manufacturer's instructions. In brief, cells were seeded into upper inserts (2.5×10^4 cells/insert) in DMEM supplemented with 0.1% bovine serum albumin (BSA). Outer wells were filled with DMEM containing 10% FBS as the chemoattractant. After 24 hours of incubation, the membranes with invaded cells were stained with Giemsa (Sigma), washed and mounted on slides. The entire membrane with invading cells was counted by light microscopy. Data are expressed as the number of invaded cells/well. Each assay was performed in triplicate and repeated at least twice.

A549 cells [3] = assay: Wound healing assay; conditions: PMA 100 nM, 1,10-phenanthroline 20 μM
Description: as §1
An in vitro model of the ability of A549 and CL1-1 lung cancer cells to migrate in a monolayer culture was used to measure wound healing ability. Lung cancer cells were seeded into 6-well plates and incubated overnight. The cells were disrupted by scraping them with a […] pipette tip. […] The percent of wounded area filled was calculated as follows: [(mean wound width-mean remaining width)/mean wound width]×100(%).

laminin-5 = assay: Western blot of laminin-5 level and degradation in A549 spheroid culture; conditions: for level of laminin 5: A549 spheroid culture 12 days, PMA 100 nM, 1,10-phenanthroline 20 μM; for laminin 5 protein half-life / degradation: A549 suspension cells, spheroid medium containing cycloheximide 50 μg/ml
Description: as §1, §2, §3

laminin 5 = assay: Western blot of laminin 5 protein with cycloheximide with or without MG132; conditions: TICs with Col17a1 knockdown; 50 μg/ml cycloheximide; 10 μM MG132; 6, 12, 24, 36 hours
Description: FIGS. 5a-5k show the Col XVII-mediated suspension survival ability depends on laminin 5 and FAK activation. FIGS. 5a and 5b show the Bulk cancer cells (Bulk) and spheroid culture-enriched TICs (SPH) were cultured in spheroid condition for 10 h, followed by FIG. 5a (western blot assay), and FIG. 5b (immunofluorescence) followed by examination with a confocal microscope. […] FIGS. 5e-5f show the spheroid cultures of cells overexpressed with control shRNAs (CTR) or different Col17a1 shRNAs, si(1) and si(2) were assayed for mRNA and protein levels (FIG. 5e), and immunostaining (CCS)(FIG. 5f) followed by examination with a confocal microscope. FIG. 5g (top), western blot analysis for spheroid culture-enriched TICs expressing control shRNAs (CTR) or Col17a1 shRNAs, si(1) or si(2), treated with 50 μg/ml cycloheximide in the presence or absence of 10 μM MG132 for 6, 12, 24, and 36 hours. FIG. 5g (bottom), graphical representation of the relative band intensities of laminin 5 protein. […]
Cells were lysed and protein was extracted using M-PER (Pierce, Rockford, Ill.) plus protease inhibitor cocktail (Pierce), and the protein concentrations were determined by the BCA assay (Pierce). […] The membrane was then hybridized with primary antibodies followed by corresponding secondary antibodies, and then detected using a chemiluminescence assay (Millipore, Billerica, Mass.). […]

[4] = tested on: S727 phosphorylation of STAT3; assay: Western blot analysis of STAT3 S727 phosphorylation in CCS cells
Description: FIGS. 7a-7m show the PP2A regulates STAT3 activation at S727 and mediates suspension survival ability in TICs. […] The results are expressed as mean±SD of three independent experiments. Asterisks indicate significant differences determined by student's t-test. Bar=20 μm.
Cells were lysed and protein was extracted using M-PER (Pierce, Rockford, Ill.) plus protease inhibitor cocktail (Pierce), and the protein concentrations were determined by the BCA assay (Pierce). Aliquots of protein lysates were separated on SDS-10% polyacrylamide gels and transferred onto poly-vinylidenedifluoride (PVDF) membrane, which was blocked with 5% milk (Bio-Rad, Richmond, Calif.) in TBST. The membrane was then hybridized with primary antibodies followed by corresponding secondary antibodies, and then detected using a chemiluminescence assay (Millipore, Billerica, Mass.). Membranes were exposed to X-ray film to visualize the bands (Amersham Pharmacia Biotech, Piscataway, N.J.). Antibodies against pSTAT3 (S727) (1:1000), pSTAT3 (Y705) (1:1000), STAT3 (1:2000), PP2A C subunit (1:2000), pAkt (S473) (1:1000), β-tubulin (1:2000), Flag (1:2000), pAkt (T308) (1:1000), Akt (1:2000), ERK (1:2000), pP38 (T180 and Y182) (1:1000), P38 (1:2000), pJNK (1:1000), and pmTOR (S2448) (1:1000) were purchased from Cell Signaling Technologies. Antibodies against pPP2A (Y307) (1:2000), Oct4 (1:500), Nanog (1:500), Histone H1 (1:1000), and Sox2 (1:500) were purchased from Santa Cruz Biotechnology Inc. Antibodies against pFAK (Y397) (1:1000) were purchased from GeneTex (San Antonio, Tex.). Antibody against Col17a1 was purchased from Abcam. Antibody against Laminin y2 (1:1000) was purchased from Chemicon (Temecula, Calif.). Antibody against cleaved-caspase 3 (1:1000) was purchased from Epitomics (Burlingame, Calif.). Antibody against pERK (1:1000) was purchased from Biosource (Camerillo, Calif.).

[5] = tested on: spheres formed by HT29 spheroid culture; assay: Live/Dead analysis of spheres pre-treated with enzymes, then suspension culture; conditions: pre-treatment of spheres with enzyme, then suspension culture 24 hours
[6] = CCS bulk cancer cells, 0, 0.1, 0.5, 1 nM OA for 1 hour or 0, 5, 10, 15 nM CA for 30 min

c1cnc2c(c1)ccc1cccnc12 [1,10-phenanthroline]
EMT markers (EMT markers): reduced | expression of Snail (EMT markers): reduced | expression of epithelial marker E-cadherin (EMT markers): increased | expression of mesenchymal markers (EMT markers): decreased | shedding of COL XVII (Col XVII): decreased | cell migration (A549 cells [1]): reduced | invasion (A549 cells [2]): reduced | wound closure (A549 cells [3]): reduced | level of laminin 5 (laminin-5): negatively | laminin 5 protein half-life / degradation (laminin-5): degraded faster

CC(C)C[C@@H](C=O)NC(=O)[C@H](CC(C)C)NC(=O)[C@H](CC(C)C)NC(=O)OCc1ccccc1 [MG132] (Cbz-Leu-Leu-Leu-aldehyde)
laminin 5 protein level (laminin 5): restored

CCCCCCCCCCCCCC(=O)O[C@@H]1[C@@H](C)[C@@]2(O)[C@@H](C=C(CO)C[C@]3(O)C(=O)C(C)=C[C@@H]23)[C@@H]2C(C)(C)[C@]12OC(C)=O [PMA]
EMT markers (EMT markers): activated | expression of Snail (EMT markers): enhanced | expression of epithelial marker E-cadherin (EMT markers): decreased | expression of mesenchymal markers (EMT markers): increased | shedding of COL XVII (Col XVII): increased; also recorded: stimulated | cell migration (A549 cells [1]): enhanced | invasion (A549 cells [2]): enhanced | wound closure (A549 cells [3]): enhanced | level of laminin 5 (laminin-5): positively; also recorded: enhanced | laminin 5 protein half-life / degradation (laminin-5): longer half-life; also recorded: decreased degradation

COC[C@@H]([C@H](O)[C@H](O)C(=O)NCC[C@H](C)c1nc(/C=C/C[C@@H]2O[C@]3(C[C@@H](O)[C@@H]2C)O[C@H]([C@H](C[C@H](O)[C@H](C)[C@H](O)[C@H](C)/C=C(C)/C(C)=C/C=C/C(C)=C\C#N)OC)[C@H](OP(=O)(O)O)C3(C)C)co1)N(C)C [calyculin A]
S727 phosphorylation of STAT3 [4, 6]: increased S727 phosphorylation of STAT3 in a dose-dependent manner

CCCCCCCCCCCCCC=CC(O)C(CO)NC(=O)CCCCC (stereo not shown) [ceramide C6]
S727 phosphorylation of STAT3 ([4]; CCS spheroid culture-enriched TICs, 50 nM ceramide C6 for 24 hours): reduced S727 phosphorylation of STAT3

C=C1[C@@H](O)[C@@H]2O[C@]3(CC[C@H](/C=C/[C@@H](C)[C@@H]4CC(C)=C[C@@]5(O[C@H](C[C@@](C)(O)C(=O)O)CC[C@H]5O)O4)O3)CC[C@H]2O[C@@H]1[C@@H](O)C[C@H](C)[C@H]1O[C@@]2(CCCCO2)CC[C@H]1C [okadaic acid]
S727 phosphorylation of STAT3 [4, 6]: increased S727 phosphorylation of STAT3 in a dose-dependent manner

chymotrypsin
cell death in suspension culture (Live/Dead analysis) [5]: cause cell death
